Results published in publication PMC5053523, “In Vitro Antibacterial Activity of Rhodanine Derivatives against Pathogenic Clinical Isolates” (PLoS ONE, 2016).
Converted amounts (≈) assume the structure as drawn. Like-named read-outs stand apart in the source and are kept apart here.

Assays:
[1] = system: vancomycin resistant enterococci (VRE); experiment: Broth microdilution MIC50/MIC90, VRE panel; assay type: cell-based; conditions: Enterococcus, 10 VRE strains
[2] = system: B. cereus; experiment: Broth microdilution MIC/MBC, B. cereus; assay type: cell-based; conditions: Bacillus cereus; for MBC: read-out: MBC; for MIC: read-out: MIC
From the text: The broth microdilution technique was used, followed by subculturing on agar plates that were rhodanine—free.

[3] = system: B. licheniformis; experiment: Broth microdilution MIC/MBC, B. licheniformis; assay type: cell-based; conditions: Bacillus licheniformis; for MBC: read-out: MBC; for MIC: read-out: MIC
[4] = system: Bacillus Strains; experiment: Broth microdilution MIC50/MIC90 and MIC range, Bacillus strains panel; assay type: cell-based, Bacillus spp.; conditions: 10 Bacillus strains
From the text: The broth microdilution technique was used, followed by subculturing on agar plates that were rhodanine—free. […] The MICs reported represent the lowest concentration of each compound necessary to inhibit bacterial growth and the MBCs represent the lowest concentration required to reduce the initial bacterial inoculum by ≥ 99.9%.

[5] = system: Clostridium difficile; experiment: MIC against Clostridium difficile, anaerobic broth dilution; assay type: cell-based; conditions: Clostridioides difficile
Method in brief: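 Clinical C. difficile isolates grown anaerobically 48 h at 37 °C, suspended to 0.5 McFarland and diluted 1:300 in pre-reduced supplemented Brain Heart Infusion broth. Compounds serially diluted; plates incubated anaerobically at 37 °C for 48 h. MIC = lowest concentration with no visible growth.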

[6] = system: Mycobacterium smegmatis; experiment: Broth microdilution MIC/MBC, Mycobacterium smegmatis; assay type: cell-based; conditions: Mycolicibacterium smegmatis, ATCC14468, M. Smegmatis ATCC 14468
[7] = system: P. aeruginosa; experiment: Broth microdilution MIC, P. aeruginosa; assay type: cell-based; conditions: Pseudomonas aeruginosa
[8] = system: Acinetobacter baumannii; experiment: Broth microdilution MIC, Acinetobacter baumannii; assay type: cell-based
[9] = system: MRSA USA300; experiment: MIC against MRSA USA300 with and without 4% human serum albumin; assay type: cell-based, Staphylococcus aureus; conditions: Staphylococcus aureus, read-out: MIC against MRSA USA300
Method in brief: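 MIC measured in tryptic soy broth spiked with 4% HSA and without it, using CLSI broth microdilution on MRSA USA300. Value reported is the lowest concentration preventing bacterial growth.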

[10] = system: Acinetobacter baumannii; experiment: MIC with/without sub-MIC colistin, Acinetobacter baumannii; assay type: cell-based
Method in brief: (§1)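 Sub-MIC colistin or PMBN added to broth MIC tests of rhodanines and reference antibiotics against Gram-negative strains; AcrAB efflux-deficient E. coli SM1411ΔacrAB also tested.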

[11] = system: Salmonella Typhimurium; experiment: MIC with/without sub-MIC colistin, Salmonella Typhimurium; assay type: cell-based
Method in brief: as §1

[12] = system: Klebsiella pneumoniae; experiment: MIC with/without sub-MIC colistin, Klebsiella pneumoniae; assay type: cell-based
Method in brief: as §1

[13] = system: Pseudomonas aeruginosa; experiment: MIC with/without sub-MIC colistin, Pseudomonas aeruginosa; assay type: cell-based
Method in brief: as §1

[14] = system: Escherichia coli O157:H7; experiment: MIC with/without PMBN, Escherichia coli O157:H7; assay type: cell-based
Method in brief: as §1

[15] = system: Salmonella Typhimurium; experiment: MIC with/without PMBN, Salmonella Typhimurium; assay type: cell-based
Method in brief: as §1

[16] = system: Pseudomonas aeruginosa; experiment: MIC with/without PMBN, Pseudomonas aeruginosa; assay type: cell-based
Method in brief: as §1

[17] = system: Escherichia coli Δ acrAB; experiment: MIC against E. coli 1411 and AcrAB efflux pump deficient E. coli SM1411Δ acrAB; assay type: cell-based
Method in brief: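 Gram-negative MICs were determined for rhodanines alongside control antibiotics, each combined with sub-inhibitory colistin or PMBN. Further testing used the efflux-deficient E. coli SM1411ΔacrAB, missing the AcrAB multidrug pump.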

[18] = NRS201, B. cereus NRS 201 NR-2488
[19] = NCIB9375, B. licheniformis Gibson 46 (NCIB 9375) NR-2494
[20] = NRS712, B. licheniformis NRS 712 NR-2499
[21] = Salmonella enterica, ATCC 700720 / TYPHIMURIUM

## O=C(O)[C@@H](Cc1ccccc1)N1C(=O)/C(=C/c2cccc(Oc3ccc(F)cc3)c2)SC1=S [Rh 4]
[1]; VRE, read-out: MIC 90
  MIC90: 32 µM (≈ 15.3 µg/mL)
[1]; read-out: MIC 50
  MIC50: 32 µM (≈ 15.3 µg/mL)
[2]; B. cereus BAG1O-2 NR-28582
  MBC: 8 µM (≈ 3.84 µg/mL)
  MIC: 8 µM (≈ 3.84 µg/mL)
[2]; B. cereus BAG1X1-1 NR-28575
  MBC: 8 µM (≈ 3.84 µg/mL)
  MIC: 8 µM (≈ 3.84 µg/mL)
[2]; B. cereus BAG1X2-1 NR-28578
  MBC: 8 µM (≈ 3.84 µg/mL)
  MIC: 8 µM (≈ 3.84 µg/mL)
[2]; B. cereus G9241 NR-9564
  MBC: 16 µM (≈ 7.67 µg/mL)
  MIC: 16 µM (≈ 7.67 µg/mL)
[2]; B. cereus VD014 NR-22141
  MBC: 8 µM (≈ 3.84 µg/mL)
  MIC: 8 µM (≈ 3.84 µg/mL)
[2]; B. cereus VD115 NR-22148
  MBC: 8 µM (≈ 3.84 µg/mL)
  MIC: 8 µM (≈ 3.84 µg/mL)
[2]; B. cereus VD148 NR-22150
  MBC: 8 µM (≈ 3.84 µg/mL)
  MIC: 8 µM (≈ 3.84 µg/mL)
[2]; [18]
  MBC: > 64 µM
  MIC: 8 µM (≈ 3.84 µg/mL)
[3]; [19]
  MBC: 16 µM (≈ 7.67 µg/mL)
  MIC: 16 µM (≈ 7.67 µg/mL)
[3]; [20]
  MBC: 16 µM (≈ 7.67 µg/mL)
  MIC: 16 µM (≈ 7.67 µg/mL)
[4]
  MIC50: 8 µM (≈ 3.84 µg/mL)
  MIC90: 16 µM (≈ 7.67 µg/mL)
[5]; C. difficile HM-88
  MIC: 4 µM (≈ 1.92 µg/mL)
[5]; C. difficile HM-745
  MIC: 2 µM (≈ 0.959 µg/mL)
[5]; C. difficile HM-746
  MIC: 2 µM (≈ 0.959 µg/mL)
[5]; C. difficile Isolate-1 NR-13427
  MIC: 2 µM (≈ 0.959 µg/mL)
[5]; C. difficile Toxigenic Strain P8 NR-32888
  MIC: 4 µM (≈ 1.92 µg/mL)
[6]; read-out: MBC
  MBC: > 64 µM
[6]; read-out: MIC
  MIC: 32 µM (≈ 15.3 µg/mL)
[7]; ATCC9721
  MIC: > 128 µM
[7]; ATCC15442
  MIC: > 128 µM
[8]; ATCC13345
  MIC: > 128 µM
[8]; ATCC17786
  MIC: > 128 µM
[9]; 24 h, Media TSB + 4% HSA
  MIC: > 64 µM
[9]; Media TSB
  MIC: 16 µM (≈ 7.67 µg/mL)
[10]; Acinetobacter baumannii ATCC BAA747, colistin (+) […], read-out: MIC
  MIC: >64 µM
[10]; Acinetobacter baumannii ATCC BAA19606, colistin (+) […], read-out: MIC
  MIC: >64 µM
[10]; Acinetobacter baumannii, ATCCBAA747
  MIC: > 128 µM
[10]; Acinetobacter baumannii, ATCCBAA19606
  MIC: > 128 µM
[11]; Salmonella Typhimurium ATCC 700720, colistin (+) […], read-out: MIC
  MIC: >64 µM
[11]; [21]
  MIC: > 128 µM
[12]; Klebsiella pneumoniae ATCC BAA 2146, colistin (+) […]
  MIC: >64 µM
[12]; Klebsiella pneumoniae, BAA2146
  MIC: > 128 µM
[13]; Pseudomonas aeruginosa ATCC 921, colistin (+) […], read-out: MIC
  MIC: >64 µM
[13]; Pseudomonas aeruginosa, ATCC921
  MIC: > 128 µM
[14]; Escherichia coli O157:H7 ATCC 35150, PMBN (+) 4 μg/mL, read-out: MIC
  MIC: 8 µM (≈ 3.84 µg/mL)
[14]; Escherichia coli O157:H7 ATCC 700728, PMBN (+) 4 μg/mL, read-out: MIC
  MIC: >64 µM
[14]; Escherichia coli, ATCC35150
  MIC: > 256 µM
[14]; Escherichia coli, ATCC700728
  MIC: > 128 µM
[15]; Salmonella Typhimurium ATCC 700720, PMBN (+) 4 μg/mL, read-out: MIC
  MIC: >128 µM
[15]; [21]
  MIC: > 128 µM
[16]; Pseudomonas aeruginosa ATCC 9721, PMBN (+) 4 μg/mL, read-out: MIC
  MIC: >64 µM
[16]; Pseudomonas aeruginosa, ATCC9721
  MIC: > 128 µM
[17]; E.coli 1411
  MIC: > 64 µM
[17]; E.coli 1411 SM (Δ acrAB, AcrAB efflux pump deficient)
  MIC: > 64 µM
